Experimental data: patent US10160772B2, “5,6-dihydro-4H-benzo[b]thieno-[2,3-d]azepine derivatives” (PULMOCIDE LIMITED, priority 2014, dated 2018)
Like-named read-outs stand apart in the source and are kept apart here.

Legend:
Format in all cases: cell-based
[1] = Cell viability: resazurin assay in Hep2 cells; details: human, 5 days incubation
Experimental: Cell Viability: Resazurin Assay Hep2 cells were seeded in 384-well plates (10^3/well/50 μL; BD Falcon Ref 353962) in FBS DMEM (5%, containing 2 mM L-glutamine and 1 mM sodium pyruvate) one day before experimentation. Serum-free DMEM (50 μL) was added to test wells while for control wells the media was removed and sterile water (100 μL) was added. Test compounds (0.5 μL DMSO solution) were added to give a final DMSO concentration of 0.5%. Hep2 cells were incubated with each test compound for 5 days (37° C./5% CO2 in 5% FBS) and then resazurin stock solution (5 μL; 0.03%) was added to each well and the plate incubated further for a further 6 hrs (37° C./5% CO2). The fluorescence of each well at 545 nm (excitation) and 590 nm (emission) was determined using a multi-scanner (Clariostar: BMG Labtech). The percentage loss of cell viability was calculated for each well relative to vehicle (0.5% DMSO) treatment. Where appropriate, a CC50 value was calculated from the concentration-response curve generated from the concentration-response curve for each test compound.

[2] = system: RSV B Washington strain; assay: RSV B-induced CPE in Hep2 cells; details: human respiratory syncytial virus; for IC50: HEp-2, 144 h, read-out: RSV B CPE IC50
Experimental: (§1) Biological Testing: Experimental Methods Assessment of RSV Induced CPE in Hep2 Cells
(§2) Hep2 cells were seeded (10^3/well/50 μL) in 384-well plates (Catalogue number 353962, BD Falcon, Oxford, UK) in 5% serum free-DMEM containing 2 mM L-glutamine and 1 mM sodium pyruvate one day before infection. RSV A2 strain (#0709161v, NCPV, Public Health England, Wiltshire) or RSV B Washington strain (VR-1580, ATCC, Manassas, Va. 20108) virus solutions were prepared in serum free-DMEM with 2 mM L-glutamine and 1 mM sodium pyruvate, and then added (50 μL/well) to achieve a final virus concentration of 1 MOI for RSV A and 0.1MOI for RSV B. Simultaneously test compounds (0.5 μL DMSO solution) were added to 100 μL of Hep2 cell culture with virus solution to provide a final DMSO solution of 0.5%. Plates were incubated (37° C./5% CO2) for 5 days for studies using RSV A2 strain or 6 days for those using RSV B strain, and then resazurin sodium salt (5 μL of 0.03% solution; Sigma-Aldrich, Dorset, UK) was added to each well and the plate incubated for a further 6 hr (37° C. and 5% CO2). The fluorescence of each well [545 nm (excitation)/590 nm (emission)] was determined using a multi-scanner (Clariostar: BMG, Buckinghamshire, UK). The percentage inhibition for each well was calculated and the IC50, IC75 and IC90 values were calculated from the concentration-response curve generated for each test compound.

[3] = system: RSV A2 strain; assay: RSV A2-induced CPE in Hep2 cells; details: human respiratory syncytial virus; for IC50: HEp-2, 120 h, read-out: RSV A2 CPE IC50; for inhibition at 0.01 µg/mL: at 0.01 μg/mL (footnote 2)
Experimental: as §1, §2

[4] = Hep2 cells, RSV B Washington 0.1 MOI, 6 days, resazurin
[5] = HEp-2, Hep2 cells, at 1 μg/mL, read-out: RSV B CPE % Inhibition
[6] = Hep2 cells, RSV A2 1 MOI, 5 days, resazurin
[7] = HEp-2, Hep2 cells, read-out: RSV A2 CPE % Inhibition
[8] = HEp-2, Hep2 cells, at 0.1 μg/mL, read-out: RSV A2 CPE % Inhibition

| SMILES | CC50 at 5 days [1] [µM] | IC50 [2, 4] [nM] | inhibition at 1 µg/mL [2, 5] [%] | IC50 [3, 6] [nM] | inhibition at 0.01 µg/mL [3, 7] [%] | inhibition at 0.1 µg/mL [3, 8] [%] | IC50 [2] [nM] | inhibition at 1 µg/mL ([2]; HEp-2, read-out: RSV B CPE % Inhibition) [%] | IC50 [3] [nM] | inhibition at 0.1 µg/mL ([3]; HEp-2, read-out: RSV A2 CPE % Inhibition) [%] |
| --- | --- | --- | --- | --- | --- | --- | --- | --- | --- | --- |
| Cc1cnc(N2CC3(CCOCC3)C2)c(C(=O)Nc2ccc(C(=O)N3CCc4cc(-c5nc6ccccc6[nH]5)sc4-c4ccccc43)c(F)c2)c1 [Example 26, N-(4-(2-(1H-benzo[d]imidazol-2-yl)-5,6-dihydro-4H-benzo[b]thieno[2,3-d]azepine-6-carbonyl)-3-fluorophenyl)-5-methyl-2-(7-oxa-2-azaspiro[3.5]nonan-2-yl)nicotinamide] | > 14.3 | 12 | 100 | 0.27 | 100 | – | – | – | – | – |
| O=C(Nc1ccc(C(=O)N2CCc3cc(-c4nc5cccc(Cl)c5[nH]4)sc3-c3ccccc32)cc1)c1cccnc1N1CC2(CCOCC2)C1 [Example 9, N-(4-(2-(7-chloro-1H-benzo[d]imidazol-2-yl)-5,6-dihydro-4H-benzo[b]thieno[2,3-d]azepine-6-carbonyl)phenyl)-2-(7-oxa-2-azaspiro[3.5]nonan-2-yl)nicotinamide] | > 14.3 | 44.1 | 100 | 0.67 | – | 100 | – | – | – | – |
| Cc1ccc2nc(-c3cc4c(s3)-c3ccccc3N(C(=O)c3ccc(NC(=O)c5cccnc5N5CC6(CCOCC6)C5)cc3)CC4)[nH]c2c1 [Example 11, N-(4-(2-(6-methyl-1H-benzo[d]imidazol-2-yl)-5,6-dihydro-4H-benzo[b]thieno[2,3-d]azepine-6-carbonyl)phenyl)-2-(7-oxa-2-azaspiro[3.5]nonan-2-yl)nicotinamide] | > 14.7 | 45.7 | 100 | 0.28 | – | 100 | – | – | – | – |
| Cc1cnc(N2CC3(CCOCC3)C2)c(C(=O)Nc2ccc(C(=O)N3CCc4cc(-c5nc6cccc(C)c6[nH]5)sc4-c4ccccc43)c(F)c2)c1 [Example 27, N-(3-fluoro-4-(2-(7-methyl-1H-benzo[d]imidazol-2-yl)-5,6-dihydro-4H-benzo[b]thieno[2,3-d]azepine-6-carbonyl)phenyl)-5-methyl-2-(7-oxa-2-azaspiro[3.5]nonan-2-yl)nicotinamide] | > 14 | 15 | 80 | 0.29 | – | 90 | – | – | – | – |
| Cc1cnc(N2CC3(CCOCC3)C2)c(C(=O)Nc2ccc(C(=O)N3CCc4cc(-c5nc6cccc(C)c6[nH]5)sc4-c4ccccc43)cc2)c1 [Example 16, 5-methyl-N-(4-(2-(7-methyl-1H-benzo[d]imidazol-2-yl)-5,6-dihydro-4H-benzo[b]thieno[2,3-d]azepine-6-carbonyl)phenyl)-2-(7-oxa-2-azaspiro[3.5]nonan-2-yl)nicotinamide] | > 14.4 | 16 | 99 | 0.11 | – | 100 | – | – | – | – |
| Cc1ccc(C(=O)Nc2ccc(C(=O)N3CCc4cc(-c5nc6cccc(F)c6[nH]5)sc4-c4ccccc43)cc2)c(N2CC3(CCOCC3)C2)n1 [Example 20, N-(4-(2-(7-fluoro-1H-benzo[d]imidazol-2-yl)-5,6-dihydro-4H-benzo[b]thieno[2,3-d]azepine-6-carbonyl)phenyl)-6-methyl-2-(7-oxa-2-azaspiro[3.5]nonan-2-yl)nicotinamide] | > 14.3 | 7.6 | 100 | 0.094 | – | 100 | – | – | – | – |
| Cc1cccc2nc(-c3cc4c(s3)-c3ccccc3N(C(=O)c3ccc(NC(=O)c5cccnc5N5CC6(CCOCC6)C5)cc3)CC4)[nH]c12 [Example 1, N-(4-(2-(7-Methyl-1H-benzo[d]imidazol-2-yl)-5,6-dihydro-4H-benzo[b]thieno[2,3-d]azepine-6-carbonyl)phenyl)-2-(7-oxa-2-azaspiro[3.5]nonan-2-yl)nicotinamide] | > 14.7 | – | – | – | – | – | 84.7 | 100 | 0.21 | 100 |
| Cc1cc(C(=O)Nc2ccc(C(=O)N3CCc4cc(-c5nc6cccc(F)c6[nH]5)sc4-c4ccccc43)cc2)c(N2CC3(CCOCC3)C2)nc1C [Example 22, N-(4-(2-(7-fluoro-1H-benzo[d]imidazol-2-yl)-5,6-dihydro-4H-benzo[b]thieno[2,3-d]azepine-6-carbonyl)phenyl)-5,6-dimethyl-2-(7-oxa-2-azaspiro[3.5]nonan-2-yl)nicotinamide] | > 14 | 14 | 100 | 1.6 | 90 | – | – | – | – | – |
| COc1ccc(C(=O)Nc2ccc(C(=O)N3CCc4cc(-c5nc6ccccc6[nH]5)sc4-c4ccccc43)cc2)c(N2CC3(CCOCC3)C2)n1 [Example 21, N-(4-(2-(1H-benzo[d]imidazol-2-yl)-5,6-dihydro-4H-benzo[b]thieno[2,3-d]azepine-6-carbonyl)phenyl)-6-methoxy-2-(7-oxa-2-azaspiro[3.5]nonan-2-yl)nicotinamide] | > 14.4 | 45.2 | 100 | 0.21 | – | 100 | – | – | – | – |
| Cc1cnc(N2CC3(CCOCC3)C2)c(C(=O)Nc2ccc(C(=O)N3CCc4cc(-c5nc6cccc(Cl)c6[nH]5)sc4-c4ccccc43)cc2)c1 [Example 15, N-(4-(2-(7-chloro-1H-benzo[d]imidazol-2-yl)-5,6-dihydro-4H-benzo[b]thieno[2,3-d]azepine-6-carbonyl)phenyl)-5-methyl-2-(7-oxa-2-azaspiro[3.5]nonan-2-yl)nicotinamide] | > 14 | 83.3 | 100 | 0.17 | – | 85 | – | – | – | – |
| Cc1cc(C(=O)Nc2ccc(C(=O)N3CCc4cc(-c5nc6cccc(C)c6[nH]5)sc4-c4ccccc43)cc2)c(N2CC3(CCOCC3)C2)nc1C [Example 24] | > 14.1 | 27.3 | 100 | 0.85 | – | 100 | – | – | – | – |
| O=C(Nc1ccc(C(=O)N2CCc3cc(-c4nc5cccc(C(F)(F)F)c5[nH]4)sc3-c3ccccc32)cc1)c1cccnc1N1CC2(CCOCC2)C1 [Example 10, 2-(7-oxa-2-azaspiro[3.5]nonan-2-yl)-N-(4-(2-(7-(trifluoromethyl)-1H-benzo[d]imidazol-2-yl)-5,6-dihydro-4H-benzo[b]thieno[2,3-d]azepine-6-carbonyl)phenyl)nicotinamide] | > 13.6 | 62 | 100 | 0.14 | – | 100 | – | – | – | – |
| Cc1cc(C(=O)Nc2ccc(C(=O)N3CCc4cc(-c5nc6cccc(Cl)c6[nH]5)sc4-c4ccccc43)cc2)c(N2CC3(CCOCC3)C2)nc1C [Example 23, N-(4-(2-(7-chloro-1H-benzo[d]imidazol-2-yl)-5,6-dihydro-4H-benzo[b]thieno[2,3-d]azepine-6-carbonyl)phenyl)-5,6-dimethyl-2-(7-oxa-2-azaspiro[3.5]nonan-2-yl)nicotinamide] | > 13.7 | 103 | 100 | 0.75 | – | 100 | – | – | – | – |
| Cc1cnc(N2CC3(CCOCC3)C2)c(C(=O)Nc2ccc(C(=O)N3CCc4cc(-c5nc6ccccc6[nH]5)sc4-c4ccccc43)cc2)c1 [Example 13, N-(4-(2-(1H-benzo[d]imidazol-2-yl)-5,6-dihydro-4H-benzo[b]thieno[2,3-d]azepine-6-carbonyl)phenyl)-5-methyl-2-(7-oxa-2-azaspiro[3.5]nonan-2-yl)nicotinamide] | > 14.7 | 0.99 | 100 | 0.085 | – | 100 | – | – | – | – |
